For this test, the system named is whitetail deer. In words: Free-choice consumption of repellent-adulterated salt by salt-deprived deer. The following applies: mean per 48-hour provision, dry matter basis. The format is in vivo. As for the experimental part: The products evaluated were three classes of commercially available, non-lethal repellents. Products that repel deer based on taste modification, chemical irritation and fear were evaluated. One gram of water was used to blend the dry repellents with loose salt in a V-mixer (tumble mixer). Liquid repellents were added directly to salt and blended using the V-mixer. After blending, the adulterated salt was weighed into labeled, channel-lock bags, sealed, and stored for eventual delivery to the test farm.
Testing was carried out at the farm of a whitetail deer farmer located in Indiana. The testing was carried out by both the farmer and a veterinarian. Approximately twelve deer that ranged in age from 1.5 to 3 years were used in the study. The deer appeared to be healthy at the beginning of the study and maintained satisfactory health during the completion of the study. Signs consistent with clinical disease were not observed, and medical treatments were not administered to any of the deer. The deer were divided into two groups and housed in two separate grass paddocks. Each paddock housed approximately six deer. The size of the paddocks was about 250 ft.×100 ft.
The deer used in the study were fed a diet that was devoid of supplemental salt. Feed was provided in plastic feeders on the ground and inside a wooden, three-sided feeding station that was constructed by the farm owner. Feeding stations were present in both paddocks. Salt was provided free-choice in shallow, black rubber pans, and the pans were housed in a raised, wooden trough that was mounted on the wall of the feeding station. Water was provided to the deer in round plastic containers located within the paddocks. Water and feed were provided to the deer by the farm owner.
Prior to initiation of the study, the salt-free diet and free-choice, unadulterated salt were provided to the deer for a period of one-week to permit acclimation to the feeding regimen. After initiation of the study, access to salt was restricted in an attempt to impose a state of salt deprivation in the deer. Free-choice, unadulterated salt was removed, and the deer were fed the diet deficient in salt for a period of 48 hours to induce salt deprivation. After 48 hours, free-choice salt containing the different repellents was provided. After 48 hours, salt containing the repellents was removed, and another 48-hour period of salt deprivation was imposed followed by provision of adulterated salt for another 48-hour period. The regimen of 48 hours of adulterated salt provision, 48 hours of salt deprivation was used throughout the study and constituted an experimental replication. A total of eight replications were completed for the chemical irritation and fear class of repellents. A total of seven replications were completed for the taste class of repellents.
The pans containing adulterated salt were randomly arranged in the raised, wooden trough on each replication to prevent the deer from becoming habituated to the placement of repellents in a particular position in the trough. A one-week period of access to unadulterated salt was permitted after the final replication of the respective classes of repellents was completed. The experimental period for each class of repellents varied between 28 and 32 days.
Absolute dry matter of unadulterated salt was determined by drying 1 gram samples in a 212° F. (100° C.) oven for a period of 24 hours. Dry matter of unadulterated salt was determined to be 99.8%. After collection of adulterated and unadulterated salt from the feeding stations, the salt was transferred to aluminum pans and dried in a 131° F. (55° C.) oven for 48 hours to determine physiologic dry matter.
Salt consumption was determined by calculating the difference between salt provided and salt collected after 48 hours. The data was converted to, and expressed on, a dry matter basis.
Consumption data for the two paddocks was merged for analysis. […]

Where [1] appears, read: taste repellents in free salt at Table 1 inclusion rates, seven replications.

In the case of `CC[N+](CC)(CC(=O)Nc1c(C)cccc1C)Cc1ccccc1` [Bitrex, Denatonium benzoate], the “Consumed” value under setting [1] was 8.29 g.

`COc1cc(CNC(=O)CCCC/C=C/C(C)C)ccc1O` [Capsaicin]: the “Consumed” value by setting is: (chemical irritation repellent, 0.007% by weight in salt, eight replications) 8.81 g; (chemical irritation repellent, 0.07% by weight in salt, eight replications) 9.38 g. Regarding `[Cl-].[Li+]` [Lithium Chloride, Lithium chloride], where the note is “chemical irritation repellent, 0.38% by weight in salt, eight replications”, the “Consumed” value was 7.06 g.

Take Acid casein: the “Consumed” value under setting [1] was determined as 8.21 g. Same read-out and setting: as for Rennet casein, the figure is 10.43 g; as for Sodium caseinate, 7.62 g.

Source of the values: US20120121680A1, “ANIMAL REPELLING DEICER” (NORTH AMERICAN SALT COMPANY, priority 2010, published 2012).
